Source: patent US20080058636A1, “METHODS OF MYOCARDIAL IMAGING” (Epix Pharmaceuticals, Inc., priority 2005, published 2008)
Bridge positions count the residues as written; N and C are the ends. Ends that are not written are not given here.

Legend:
[1] = In vivo heart uptake in mice, gadolinium by ICP-MS (tail vein); parameters: species or system BALB/c mice; details: mouse, 10 μmol/kg tail vein, 15 minutes post-injection
Method: In vivo heart uptake of these two compounds were also compared. […] The animals were sacrificed at 15 minutes post-injection. The organs were immediately removed and rinsed in saline, and then blotted dry. […] Both compounds have similar concentrations in the blood.

infarcted myocardium [2] = assay: Mouse model of chronic infarction, MR imaging; details: mice with 7 day, 40 day or 210 day infarcts, 25 μmol/kg i.v.
Method: Myocardial infarction was induced in C57BL/6 mice by occlusion of the left anterior descending coronary artery followed by reperfusion. The mice were anesthetized with an intraperitoneal (i.p.) injection of 100 μg pentobarbital sodium per gram body weight and a thorocotamy was performed. The pericardium was removed and the left anterior artery was sutured with a 7.0 silk suture for 60 minutes after which reperfusion was established.
Imaging was performed on separate animals at 7 days, 40 days, or 210 days following infarction. Imaging was performed using on a Varian 4.7 T MRI system Mice were anesthetized with isoflurane (1 vol. % in oxygen). Three pediatric electrocardiogram (ECG) leads were attached to shaved limbs and a rectal temperature probe was placed. […] Temperature was maintained at 37.0±0.5° C. using circulating hot water. Imaging was performed prior to, and serially (every 5 minutes) post intravenous (tail vein) injection of 25 μmol/kg Compound ID NO. […] 6-8 short-axis inversion-recovery slices covering the whole heart from base to apex were acquired with TI=430 ms, TR=1000 ms, RE=4.3 ms and 2 averages.
A heart with a 40 day old infarct was explanted, thoroughly washed in saline solution and fixed in a 3% by volume isotonic solution of formaldehyde for 12 hrs at 3° C. They were washed in PBS and stored in 70% ETOH before embedding in paraffin. […]

infarcted myocardium [3] = assay: Myocardial infarction MR imaging in mouse (7 days post MI); details: 25 μmol/kg i.v.
Method: A myocardial infarct (MI) was induced in a 28 g C57BL/6 mouse by a 1-hr occlusion of the left anterior descending coronary artery, followed by reperfusion. The mouse was allowed to recover. Seven days post MI, the mouse was anesthetized using a 2% mixture of isoflurane in oxygen and anesthesia was maintained with a 1% mixture. The mouse forelimbs were shaved and fitted with pediatric ECG leads (Blue Sensor, BRS-50-K/UJS, Ambu, Inc., Linthicum, Md.). […] Temperature was maintained at 37° C. using tubing that contained circulating, thermostated water. An i.v. line was implanted in the tail vein and the mouse was placed in the magnet.
Images were acquired on a Varian 4.7-T Inova scanner. A cardiac-gated gradient echo inversion recovery sequence was used whereby the inversion time was set to null the signal from the myocardium. The inversion pulse was a non-selective sinc pulse with a TI of 430 ms and TR of 3 seconds. The excitation is slice selective at 90 degrees and 3 to 4 lines were acquired per TR. Scan time was 4-5 minutes.
Baseline images were acquired. Typically 3-4 short-axis slices were acquired. […] Imaging was repeated out to an hour post injection.

[4] = system: perfused Langendorff rat heart; assay: Washout kinetics from perfused Langendorff rat heart
Method: A K-H buffer filled 20 Gauge needle was inserted into the apex of the heart penetrating into the bottom of the chamber. This was attached to a pressure transducer used to record and monitor heart function. Perfusion pressure (60 mmHg) was monitored using a second transducer. The heart was perfused at a constant flow rate of 10-12 mL/min with 37° C. […] The heart was paced at 300 beats/min.
A Langendorff rat heart preparation was perfused with K-H buffer at a rate of 10-12 mL/min. […] After the infusion was finished, the heart was either removed or perfusion was allowed to continue for an additional 10 minutes and then the heart was removed. The perfusion buffer was not recirculated through the heart. After removal of any connective tissue, the heart was opened, fluid in the chambers drained, and the interior blotted dry with filter paper. […] An aliquot of the K-H buffer was also weighed and counted. Concentration estimates were decay corrected. Studies were performed at least in duplicate.

[5] = Biodistribution (heart, blood) after tail vein injection, radiotracer counting; assay type: in vivo, Sprague-Dawley rats; details: for Blood (% ID/g) / Heart (% ID/g): rat, 0.5 μmol/kg tail vein
Method: Concentration estimates were decay corrected. Studies were performed at least in duplicate.

[6] = MR phantom study: T1 of samples at 0.47 Tesla; assay type: physicochemical
Method: Acid soluble human collagen type I extracted from placenta (Sigma, cat# C7774, lot#083K375) was dissolved in 15 mM HCl (3.5 mg/mL) by vortexing and gently shaking for 3-4 hours at 4° C. The acid soluble collagen was dialyzed against PBS (pH 7.4). Protein concentration was determined by the BCA method (Pierce, Cat#23225) using bovine collagen (Vitrogen, cat#FXP-019) as a reference standard. The final collagen concentration for the stock solution was 9 μM.
Rat collagen (acid soluble, type I, rat tail, Upstate USA, Inc. Cat# 08-115) was dialyzed against 10 mM Phosphate buffer (NaH2PO4, pH 4.2). The final collagen concentration for the stock solution was approx. 12 μM.
(§1) Samples: • 1. […] Sample prepared as sample 2, but centrifuged to separate insoluble rat collagen gel • 5. Sample prepared as sample 3, but centrifuged to separate insoluble human collagen gel • 6. 27 μM GdDTPA solution in PBS, pH 7.4 • 7. 27 μM GdDTPA in a solution of 5.0 μM rat type I collagen in 10 mM phosphate buffer, pH 5 incubated at 37° C. overnight to form a gel • 8. Sample prepared as in sample 7, but centrifuged to separate insoluble rat collagen gel • 9. Homogeneous gel of 5 μM rat collagen • 10. Homogeneous gel of 7.5 μM human collagen
T1 was determined for samples 1, 2, 3, 6, 7, 9, 10 at 0.47 Tesla using a Bruker NMS120 minispec NMR analyzer operating at 37° C.

[7] = system: perfused Langendorff rat heart; assay: Equilibrium binding to perfused Langendorff rat heart
Method: After deep anesthesia with pentobarbital (80 mg/kg ip), the chest cavity of a male Sprague Dawley rat (300 g) was opened, retracted and the heart was removed immediately and placed in an ice-cold normal Krebs-Henseleit (K-H) solution (NaCl, 118 mM; KCl, 4.7 mM; CaCl2, 2.5 mM; MgSO4, 1.2 mM; KH2PO4, 1.2 mM; NaHCO3, 25 mM; glucose, 5.5 mM). A K-H buffer filled 20 Gauge needle was inserted into the apex of the heart penetrating into the bottom of the chamber. This was attached to a pressure transducer used to record and monitor heart function. Perfusion pressure (60 mmHg) was monitored using a second transducer. The heart was perfused at a constant flow rate of 10-12 mL/min with 37° C. Krebs-Henseleit buffer saturated with a mixture of 95% O2 and 5% CO2 gas. The heart was paced at 300 beats/min.
Two peptide test articles, a high collagen binding peptide (SEQ ID NO: 144) and a low collagen binding peptide (SEQ ID NO: 173), are compared to GdDTPA. The appropriate test article was added to the K-H buffer solution to a total concentration of either 3 or 30 μM. Also added to the K-H buffer was a radiotracer analog of each peptide or GdDTPA. For the peptides, the radiotracer was an aliquot of the appropriate I-125 labeled peptide derivative (see Example 5 for protocol). For GdDTPA, the tracer added was Tc-99m labeled DTPA. The amount of radioactivity added to the buffer solution was 1-5 μCi.
The heart was perfused for a period of 10 minutes and the perfusion solution was recycled through the heart. The total volume of K-H buffer used was 50-60 mL. After 10 min, the heart was removed from the apparatus and any connective tissue was removed. The heart was opened, fluid in the chambers drained, and the interior blotted dry with filter paper. The heart was then weighed and the radioactivity in the heart measured with a Packard Cobra 5003 Gamma Scintillation counter. An aliquot of the K-H buffer was also weighed and counted. Studies were performed at least in duplicate.
The dual peptide gadolinium tetramer (Compound ID 803) was compared to GdDTPA. Compound ID 803 and GdDTPA were added to the K-H buffer solution to a total concentration of 3 μM. Also added to the K-H buffer was a radiotracer analog of Compound ID 803 or GdDTPA. For Compound ID 803, the radiotracer was an aliquot of the In-111 labeled compound. For GdDTPA, the tracer added was Tc-99m labeled DTPA. The amount of radioactivity added to the buffer solution was 1-5 μCi.

rat type I collagen gel = target: T1, rat type I collagen gel (Rattus norvegicus, UniProt P02454+P02466); assay: MR phantom imaging of collagen gel samples at 4.7 T
T1 construct: Rat collagen (acid soluble, type I, rat tail, Upstate USA, Inc, cat# 08-115); purchased Upstate USA, Inc 08-115; host or cells: rat tail (tissue extract)
Method: as §1
Samples for imaging were placed in glass tubes that were in turn placed in tubes containing water. Images were acquired at 4.7 T on a Bruker Biospec Imager using a Multi-Slice Multi-Echo Method with variable Relaxation Delay (MSMEVTR) experiment. The spin echo time and the relaxation delay were set to TE=11.2 ms and TR=500 ms, respectively with a flip angle of 30°. Images were acquired of sample 2, sample 4, sample 7, and sample 8. […] Sample 7 and 8 show uniform signal intensity.

[8] = in 5.0 μM rat collagen gel, 10 μM Compound ID 1022 or 27 μM GdDTPA, 37° C.
[9] = in PBS pH 7.4, 10 μM Compound ID 1022 or 27 μM GdDTPA, 37° C.

T1 sequence (P02454 152-1207 limits assumed): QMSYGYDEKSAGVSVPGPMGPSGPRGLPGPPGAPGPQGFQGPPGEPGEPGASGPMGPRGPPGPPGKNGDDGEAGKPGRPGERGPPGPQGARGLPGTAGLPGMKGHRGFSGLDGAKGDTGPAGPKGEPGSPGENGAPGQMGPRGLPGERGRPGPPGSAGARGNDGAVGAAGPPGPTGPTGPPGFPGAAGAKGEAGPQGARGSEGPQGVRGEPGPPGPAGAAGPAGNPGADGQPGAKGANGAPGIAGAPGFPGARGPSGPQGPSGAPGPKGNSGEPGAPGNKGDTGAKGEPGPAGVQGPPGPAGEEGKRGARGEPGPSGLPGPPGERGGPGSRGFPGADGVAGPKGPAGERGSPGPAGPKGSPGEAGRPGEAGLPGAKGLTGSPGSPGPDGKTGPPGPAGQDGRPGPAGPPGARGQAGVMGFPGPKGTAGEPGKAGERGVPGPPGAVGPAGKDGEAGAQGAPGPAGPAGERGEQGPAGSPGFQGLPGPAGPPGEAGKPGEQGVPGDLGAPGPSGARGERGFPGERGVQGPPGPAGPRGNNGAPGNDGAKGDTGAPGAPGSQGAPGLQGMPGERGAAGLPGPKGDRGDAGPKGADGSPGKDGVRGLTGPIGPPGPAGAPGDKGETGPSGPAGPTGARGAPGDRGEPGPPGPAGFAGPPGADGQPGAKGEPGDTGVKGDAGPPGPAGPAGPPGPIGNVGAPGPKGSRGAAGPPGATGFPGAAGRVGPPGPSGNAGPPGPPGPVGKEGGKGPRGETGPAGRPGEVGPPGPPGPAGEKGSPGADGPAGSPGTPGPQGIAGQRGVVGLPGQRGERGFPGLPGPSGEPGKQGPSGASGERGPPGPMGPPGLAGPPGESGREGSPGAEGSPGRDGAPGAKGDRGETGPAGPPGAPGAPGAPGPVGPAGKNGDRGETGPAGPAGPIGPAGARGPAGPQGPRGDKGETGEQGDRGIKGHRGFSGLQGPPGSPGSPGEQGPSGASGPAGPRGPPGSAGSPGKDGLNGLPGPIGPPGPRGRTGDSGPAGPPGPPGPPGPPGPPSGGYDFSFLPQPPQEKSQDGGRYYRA
T1 sequence (P02466 86-1125 limits assumed): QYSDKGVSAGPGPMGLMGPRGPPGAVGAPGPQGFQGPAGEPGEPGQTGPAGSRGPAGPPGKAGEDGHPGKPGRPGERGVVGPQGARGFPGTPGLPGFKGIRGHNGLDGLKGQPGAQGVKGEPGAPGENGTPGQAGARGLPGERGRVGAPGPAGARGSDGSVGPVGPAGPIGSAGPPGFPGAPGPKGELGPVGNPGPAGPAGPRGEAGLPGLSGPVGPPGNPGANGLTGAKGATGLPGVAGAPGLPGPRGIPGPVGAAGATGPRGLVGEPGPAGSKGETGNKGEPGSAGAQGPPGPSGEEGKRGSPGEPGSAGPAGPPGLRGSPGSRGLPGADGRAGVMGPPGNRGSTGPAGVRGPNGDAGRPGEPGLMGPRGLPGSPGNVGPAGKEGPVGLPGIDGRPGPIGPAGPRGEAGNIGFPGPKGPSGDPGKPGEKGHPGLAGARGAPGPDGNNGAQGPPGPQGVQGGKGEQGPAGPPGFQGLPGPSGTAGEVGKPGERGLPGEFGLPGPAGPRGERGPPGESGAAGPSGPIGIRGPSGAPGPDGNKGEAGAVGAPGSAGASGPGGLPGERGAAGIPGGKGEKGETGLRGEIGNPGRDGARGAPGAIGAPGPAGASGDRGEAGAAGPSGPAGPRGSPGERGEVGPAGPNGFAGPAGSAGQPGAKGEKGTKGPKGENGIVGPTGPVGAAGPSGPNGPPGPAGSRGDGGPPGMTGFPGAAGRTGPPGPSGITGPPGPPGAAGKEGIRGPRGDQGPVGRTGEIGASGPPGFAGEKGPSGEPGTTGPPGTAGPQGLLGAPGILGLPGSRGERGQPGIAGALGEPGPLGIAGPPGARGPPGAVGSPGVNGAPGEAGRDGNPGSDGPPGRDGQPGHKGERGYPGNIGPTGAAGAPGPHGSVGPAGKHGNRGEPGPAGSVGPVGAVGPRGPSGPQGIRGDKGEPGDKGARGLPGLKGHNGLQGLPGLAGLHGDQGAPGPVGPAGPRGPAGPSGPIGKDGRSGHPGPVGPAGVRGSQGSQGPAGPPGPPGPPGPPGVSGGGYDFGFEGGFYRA

CC(C)C[C@H](NC(=O)[C@@H]1CSSC[C@H](NC(=O)[C@H](Cc2c[nH]cn2)NC(=O)[C@H](Cc2c[nH]c3ccccc23)NC(=O)[C@H](CCCCNC(=O)CNC(=S)Nc2ccc(C[C@@H](CN(CCN(CC(=O)O)CC(=O)O)CC(=O)O)N(CC(=O)O)CC(=O)O)cc2)NC(=O)CNC(=S)Nc2ccc(C[C@@H](CN(CCN(CC(=O)O)CC(=O)O)CC(=O)O)N(CC(=O)O)CC(=O)O)cc2)C(=O)N[C@@H]([C@@H](C)O)C(=O)N[C@@H]([C@@H](C)O)C(=O)N[C@@H](CCCCNC(=S)Nc2ccc(C[C@@H](CN(CCN(CC(=O)O)CC(=O)O)CC(=O)O)N(CC(=O)O)CC(=O)O)cc2)C(=O)N[C@@H](Cc2ccccc2)C(=O)N2CCC[C@H]2C(=O)N[C@@H](Cc2c[nH]cn2)C(=O)N[C@@H](Cc2c[nH]cn2)C(=O)N[C@@H](Cc2ccc(O)cc2)C(=O)N1)C(=O)N[C@@H](Cc1ccc(O)cc1)C(=O)N[C@@H](Cc1ccc(-c2ccccc2)cc1)C(N)=O [Compound ID 800]
Gadolinium concentrations in the blood [1]: 14.3±2.3 nmol Gd/g tissue
Gadolinium concentrations in the heart [1]: 25.5±2.0 nmol Gd/g tissue
MR appearance of infarct zone (infarcted myocardium [2]): infarct zone as hyperintense relative to the normal, viable myocardium
enhancement of infarcted zones (infarcted myocardium [3]): hyperenhancement of infarcted zones
persistence of the enhancement (infarcted myocardium [3]): at least 1 hour

O=C([O-])CN(CCN(CC(=O)[O-])CC(=O)O)CCN(CC(=O)[O-])CC(=O)O.[Gd+3] [GdDTPA, gadolinium diethylenetriaminepentaacetate, reference compound]
Heart (% ID/g) ([4]; 0 min after infusion): 2.9 ± 1.5 % ID/g
Heart (% ID/g) ([4]; 10 min after infusion, non-recirculated buffer): 0.014 ± 0.002 % ID/g
Heart (% ID/g) ([4]; time after infusion 0 min, 1 mL of 300 μM infused at 1 mL/min, buffer not recirculated): 2.53 ± 0.50 % ID/g
Heart (% ID/g) ([4]; time after infusion 10 min, 1 mL of 300 μM infused at 1 mL/min, buffer not recirculated): 0.056 ± 0.011 % ID/g
Heart:Blood ([5]; 1 min post injection): 0.26
Heart:Blood ([5]; 5 min post injection): 0.26
Blood (% ID/g) ([5]; 1 min post injection): 1.2 ± 0.2 % ID/g
Heart (% ID/g) ([5]; 1 min post injection): 0.32 ± 0.02 % ID/g
Blood (% ID/g) ([5]; 5 min post injection): 0.67 ± 0.12 % ID/g
Heart (% ID/g) ([5]; 5 min post injection): 0.17 ± 0.08 % ID/g
T1 [6, 8]: 2.410 s
T1 [6, 9]: 2.437 s
Heart:Buffer ([7]; buffer 3.0 μM): 0.42 ± 0.06
Heart ([7]; buffer 3.0 μM, 10 minutes recirculating perfusion): 1.3 ± 0.3 nmol/g
Heart:Buffer ([7]; buffer 30 μM): 0.46 ± 0.03
Heart ([7]; buffer 30 μM, 10 minutes recirculating perfusion): 14 ± 1.0 nmol/g
Heart ([7]; perfused Langendorff rat heart, 3 μM compound in recirculated K-H buffer, 10 min perfusion, radiotracer counting): 1.4 ± 0.02 nmol/g
Heart:Buffer ([7]; ratio of heart concentration to buffer concentration (3.0 μM), 10 min perfusion): 0.46 ± 0.05
MR signal of centrifuged collagen gel pellet versus supernatant (rat type I collagen gel): no increased concentration of GdDTPA in the gel relative to the supernatant

Glu-DTPA-Gd-G.Q.W.H.C.T.T.R.F.P.H.H.Y.C.L.Y.G-PEG-H (GQWHCTTRFPHHYCLYG; disulfide 5-14 (inferred); not fully specified (N-terminus, C-terminus); also: Gd complex of DTPA) [SEQ ID NO. 186]
T1 [6, 8]: 2.370 s
T1 ([6]; in 7.5 μM human collagen gel, 10 μM Compound ID 1022, 37° C.): 2.100 s
T1 [6, 9]: 2.375 s
MR signal of centrifuged collagen gel pellet versus supernatant (rat type I collagen gel): the pellet for sample 4 was much brighter than the supernatant
